In patent US9248200B2, “Method of delivering an anti-cancer agent to a cell” (Agency for Science, Technology and Research, priority 2007, dated 2016):

Experiments:
[1] = tested on: human normal mammary epithelial cells (HMEC); test: Cytotoxicity test (Alamar Blue cell viability); type: cell-based; settings: treated 2 days, different concentrations, FIG. 1
Description: Cells were plated (1×10^4 cells in mammary epithelial growth medium/well) in quintuplicate and octuplicate for samples and control, respectively, in 96-well microplates, and allowed to adhere overnight.

[2] = biological target: proteinase K (Parengyodontium album, UniProt P06873); test: Proteolysis assessment (FITC-BSA fluorescence with proteinase K); settings: proteinase K 0.05 mg/ml, over time; FIG. 3
Description: Proteolysis Assessment: Protein degradation was determined by monitoring the fluorescence intensity increment in FITC-BSA when samples were subjected to proteinase K (0.05 mg/mI), using a fluorescence spectrophotometer (Hitachi, Japan, λex=490 nm and λem=530 nm). All measurements were run in triplicate.

[3] = tested on: SKBR-3 (HER2-overexpressing human breast cancer cell line); test: Cancer cell proliferation assessment (Alamar Blue); type: cell-based; settings: SKBR-3 cells; Herceptin 0.5 mg/ml; FIG. 4
Description: Cancer Cell Proliferation Assessment: SKBR-3 cells (ATCC, HTB3O, USA) were plated (1×10^4 cells in McCoy's 5 A medium/well) in quintuplicate and octuplicate for samples and control, respectively, in 96-well microplates and allowed to adhere overnight. […] At the time points indicated, the culture media were replaced by the phenol red-free media containing 10% of Alamar Blue. Cell proliferation was determined from the reduction in dye absorbance at 570 and 600 nm after 4 h of incubation.

Chain of proteinase K (P06873 106-384): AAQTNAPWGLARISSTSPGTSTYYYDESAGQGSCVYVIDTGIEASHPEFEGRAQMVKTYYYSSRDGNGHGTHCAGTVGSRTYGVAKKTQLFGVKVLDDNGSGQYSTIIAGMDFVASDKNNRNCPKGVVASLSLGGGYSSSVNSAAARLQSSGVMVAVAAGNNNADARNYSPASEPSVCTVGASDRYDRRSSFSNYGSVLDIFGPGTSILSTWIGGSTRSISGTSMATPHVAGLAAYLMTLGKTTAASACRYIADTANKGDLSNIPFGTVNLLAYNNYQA

## (−)-epigallocatechin gallate [EGCG]
[1]
  cytotoxicity: low cytotoxicity

## free FITC-BSA: fluorescence-labeled protein (FITC-BSA)
[2]
  fluorescence intensity of FITC-BSA (protein degradation): greatly increased with time

## oligomeric (−)-epigallocatechin-3-O-gallate [OEGCG]
[3]
  inhibition of cell growth: inhibited
